Test results as given in PubChem BioAssay (NCI).
Several values for one entry are separate records, joined by “and”; a condition that tells them apart may be missing. Equal entries are not always repeated.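 Five compound concentrations were applied to cells in 96-well plates for 48 hours; endpoints were derived by simple linear interpolation of the resulting dose-response curve. At the GI50, growth is halved. Definition used: TGI = concentration required for complete inhibition of growth.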

How the values were obtained:
Assay in all cases: NCI tumour cell line growth inhibition, 48 h
XF 498 CNS = tested on: XF 498 CNS
DMS 114 small cell lung = tested on: DMS 114 small cell lung
SNB-78 CNS = tested on: SNB-78 CNS
DMS 273 small cell lung = tested on: DMS 273 small cell lung
LXFL 529 NSCLC = tested on: LXFL 529 NSCLC
HOP-18 NSCLC = tested on: HOP-18 NSCLC
DLD-1 colon = tested on: DLD-1 colon
MDA-N = tested on: MDA-N
RXF-631 renal = tested on: RXF-631 renal
SN12K1 renal = tested on: SN12K1 renal

| Structure (SMILES) | TGI (XF 498 CNS) | TGI (DMS 114 small cell lung) | TGI (SNB-78 CNS) | TGI (DMS 273 small cell lung) | TGI (LXFL 529 NSCLC) [µM] | TGI (HOP-18 NSCLC) | TGI (DLD-1 colon) [µM] | TGI (MDA-N) [µM] | TGI (RXF-631 renal) [µM] | other results |
| --- | --- | --- | --- | --- | --- | --- | --- | --- | --- | --- |
| CCC(O)C1Cc2c(C)cc3c(c2O1)C(=O)c1ccccc1C3=O (stereo unspecified) | 58.9 µM | 97.7 µM | 90.6 µM | > 100 µM | > 100 | 73.6 µM | > 100 |  |  |  |
| CCOC(=O)NC/C=C/COC1CCCCO1 (stereo unspecified) |  | > 100 µM | > 100 µM | > 100 µM | > 100 | > 100 µM | > 100 |  |  |  |
| COc1cc(O)c2c(c1)O[C@@H]1OCC[C@H]21 | > 100 µM | > 100 µM | > 100 µM | > 100 µM | > 100 | > 100 µM | > 100 |  |  |  |
| Cc1ccc(NC(=O)c2cc3ccccc3c(N=Nc3cc(S(=O)(=O)O)ccc3O)c2O)c(C)c1 |  |  |  |  |  |  |  | > 100 |  |  |
| COc1ccc(NC(=O)CC/C(CC(=O)c2ccco2)=N/NC(N)=S)cc1 | > 100 µM | > 100 µM | > 100 µM | > 100 µM | > 100 | > 100 µM | > 100 |  | > 100 |  |
| Nc1nc(Cl)cc(NCC(O)CO)n1 (stereo unspecified) | > 100 µM | > 100 µM | > 100 µM | > 100 µM | > 100 | > 100 µM | > 100 |  |  |  |
| O=[N+]([O-])c1ccc(C2=Nn3c(nnc3-c3ccc(Cl)cc3)SC2)o1 | 28.7 µM | 12.4 µM | 38.6 µM | 31.1 µM | 14.1 | 33.6 µM | 4.32 | 16.4 | 27.9 |  |
| C[C@@H]1CCC([C@@H](C)[C@H]2CC[C@H]3[C@@H]4CC[C@H]5C[C@@H](O)CC[C@]5(C)[C@H]4CC[C@]23C)=NC1 |  |  |  |  |  |  |  | > 100 |  |  |
| COc1cc2c(cc1OC)CC(=O)Nc1cc(OC)c(OC)cc1CC2 | > 100 µM | 91.9 µM | > 100 µM | > 100 µM | > 100 | > 100 µM | > 100 |  | > 100 |  |
| N#CCCCCCOCCOCCOCCOCCOCCCCCC#N |  | > 100 µM |  | > 100 µM | > 100 | > 100 µM | > 100 |  | > 100 |  |
| O=C(c1ccccc1)C(c1ccccc1)C1(O)C(=O)Nc2ccc([N+](=O)[O-])cc21 (stereo unspecified) | > 100 µM | 79.3 µM | > 100 µM |  | > 100 |  | > 100 |  | > 100 |  |
| COc1ccc(Cc2c(=O)[nH]nc3ccccc23)cc1 | > 100 µM | > 100 µM | > 100 µM | > 100 µM |  | > 100 µM | > 100 |  | > 100 |  |
| CCc1nc(N)nc(N)c1-c1ccc2nnn(O)c2c1 |  |  |  |  |  |  |  | > 100 |  |  |
| Cc1nn2c(nc1=O)sc1ccc3ccccc3c12 | > 100 µM | > 100 µM | > 100 µM | > 100 µM | > 100 | > 100 µM | > 100 |  |  |  |
| CC1(Br)CC2OC3(Br)C=CC(C)(O)C2(CC1=O)C3(C)C (stereo unspecified) | > 100 µM | > 100 µM | > 100 µM | > 100 µM | > 100 | > 100 µM | > 100 |  |  |  |
| CC1=CCCC2C1(C)CCC(C)C2(C)Cc1cc(O)ccc1O (stereo unspecified) | 21.7 µM | 13.3 µM | 11 µM | 20.2 µM |  | 36.2 µM | 22.2 | 25.3 |  | TGI (SN12K1 renal): 13.5 µM |
| COC(=O)C1=CO[C@@H](OC2OC(CO)C(O)C(O)C2O)[C@H]2[C@@H](C)[C@@H](O)[C@@H](O)[C@@H]12 (stereo partly specified) |  |  |  |  |  |  |  | > 100 |  |  |
| Cc1ccc(-c2cc3c4c(nc5ccccc53)C(=O)c3cccnc3-c4n2)cc1 |  |  |  |  |  |  |  | 10.3 |  | GI50 (MDA-N): 3.27 µM |
| O=[N+]([O-])c1cc([N+](=O)[O-])c(/C=C/c2ccc(Cl)c(Cl)c2)cc1/C=C/c1ccc(Cl)c(Cl)c1 |  | 68.1 µM | > 100 µM | 96.4 µM | 56.1 |  |  |  |  |  |
| O=C(OC1CCC2OOC1O2)c1ccc([N+](=O)[O-])cc1 (stereo unspecified) |  | > 100 µM | > 100 µM | > 100 µM |  |  |  |  |  |  |

| Structure (SMILES) | TGI (XF 498 CNS) | TGI (DMS 114 small cell lung) | TGI (SNB-78 CNS) | TGI (DMS 273 small cell lung) | TGI (LXFL 529 NSCLC) [µM] | TGI (HOP-18 NSCLC) | TGI (DLD-1 colon) [µM] | TGI (MDA-N) [µM] | TGI (RXF-631 renal) [µM] | other results |
| --- | --- | --- | --- | --- | --- | --- | --- | --- | --- | --- |
| CCCCNC(=O)C1C(=O)N(CCCC)C(=O)/C1=N\N (stereo unspecified) | > 100 µM | > 100 µM | > 100 µM | > 100 µM | > 100 | > 100 µM |  |  | > 100 |  |
| O=C(NC(=O)c1ccccc1[N+](=O)[O-])Nc1ccc(Oc2ncc(Cl)cn2)c([N+](=O)[O-])c1 |  | 0.359 µM | > 100 µM | > 100 µM | > 100 | > 100 µM | > 100 |  | > 100 |  |
| C(=N\Nc1ccccc1)/c1nc2ccccc2nc1/C=N/Nc1ccccc1 |  |  | 42.7 µM |  | 23 |  | 40.9 |  | 27.6 |  |
| c1ccc2cc(NCNc3ccc4ccccc4c3)ccc2c1 |  |  |  |  |  |  |  | 18.6 |  |  |
| COc1cc2c(c(OC)c1OC)-c1ccc(OC)c(=O)cc1[C@@H](NC(C)=O)CC2 |  | 0.0724 µM |  |  |  |  | > 625 | 0.833 | > 91.2 | GI50 (SN12K1 renal): 0.00298 µM; TGI (SN12K1 renal): 0.00625 µM and < 0.0625 µM; GI50 (DLD-1 colon): 0.0176 µM |
| CC1(C)CC[C@]2(C(=O)O)CC[C@]3(C)C(=CC[C@@H]4[C@@]5(C)C[C@H](O)[C@H](O)[C@@](C)(C(=O)O)[C@@H]5CC[C@]43C)[C@@H]2C1 |  |  |  |  |  |  |  | > 100 |  |  |
| CCOC(=O)C(N=C(c1ccccc1)c1ccccc1)N(C(=O)OC(C)(C)C)C(=O)OC(C)(C)C (stereo unspecified) |  | > 100 µM | > 100 µM |  | > 100 |  |  |  |  |  |
| CC(N)(/C=C/c1ccccc1)C(=O)O (stereo unspecified) |  |  |  |  |  |  |  | > 100 |  |  |
| CCOC(=O)Cc1csc(Nc2ccc(OCC)cc2)n1 | > 100 µM | > 100 µM | > 100 µM |  | > 100 | > 100 µM | > 100 |  | > 100 |  |
| O=c1c2ccccc2nc(/C=C(\O)c2ccncc2)n1-c1ccc(Cl)cc1 | 66.4 µM | > 100 µM | > 100 µM |  | > 100 |  | > 100 |  |  |  |
| N=N/C(=C\c1c(O)[nH]c2ccccc12)c1ccccc1 |  |  |  |  |  |  |  | 13.7 |  |  |
| O=C1[C@@H]2C(c3ccccc3[N+](=O)[O-])=[N+](c3ccccc3)O[C@@H]2C(=O)N1c1ccc(Cc2ccc(N3C(=O)[C@H]4C(c5ccccc5[N+](=O)[O-])=[N+](c5ccccc5)O[C@H]4C3=O)cc2)cc1 |  | > 100 µM | > 100 µM | > 100 µM | > 100 | > 100 µM | > 100 |  |  |  |
| NC1CCCCC1N.O=[Se]([O-])[O-].[Pt+4] (stereo unspecified) |  |  | > 100 µM |  | > 100 | > 100 µM | > 83.8 |  |  | GI50 (SNB-78 CNS): 69.8 µM; GI50 (LXFL 529 NSCLC): 6.25 µM; GI50 (HOP-18 NSCLC): 27 µM; GI50 (DLD-1 colon): 1.81 µM |
| O=C1NC2C(=CC(O)C(O)C2O)c2cc3c(cc21)OCO3 (stereo unspecified) | 0.93 µM and 1.81 µM and 0.644 µM | 3.84 µM and 2.17 µM | 4.94 µM and 11.2 µM | 1.99 µM and 2.07 µM | 3.66 | 4.33 µM and 13.1 µM | 2.11 | 1.22 | 3.13 | GI50 (XF 498 CNS): 0.207 µM and 0.416 µM; GI50 (DMS 114 small cell lung): 0.335 µM and 0.321 µM; GI50 (SNB-78 CNS): 0.456 µM and 0.426 µM; GI50 (DMS 273 small cell lung): 0.604 µM and 0.301 µM; GI50 (RXF-631 renal): 0.23 µM; GI50 (LXFL 529 NSCLC): 0.313 µM; GI50 (HOP-18 NSCLC): 0.545 µM and 0.392 µM; TGI (SN12K1 renal): 1.8 µM; GI50 (DLD-1 colon): 0.325 µM and 0.217 µM |
| Nc1nc(N)c(-c2ccccc2)c(C(=O)Nc2ccccc2)n1 | > 100 µM |  | > 100 µM |  |  | > 100 µM | > 100 |  |  |  |
| COc1cc(-c2oc3c(OC)cc(OC)c(O)c3c(=O)c2OC)cc(OC)c1OC |  |  |  |  |  |  |  | > 100 |  |  |
| COC(=O)C1=COC(C)C2CN3CCc4c([nH]c5cc(OC)c(OC)cc45)C3CC12 (stereo unspecified) |  |  |  |  |  |  |  | > 100 |  |  |
| O=C(NCc1cccnc1)C1COc2cc(-c3cc(=O)c4ccccc4o3)ccc2O1 (stereo unspecified) | 72.1 µM | > 79.5 µM | > 100 µM |  | > 100 | > 100 µM | > 100 |  | > 100 |  |
| CONC(C)=O |  |  |  |  |  |  |  | > 100 |  |  |
